Assay results published in PMC9106008, “Design, Synthesis and Biological Evaluation of N-phenylindole Derivatives as Pks13 Inhibitors againstMycobacterium tuberculosis” (Molecules, 2022).
Values after ≈ are worked out from the molar mass of the structure shown. Where two headings read alike, the source gives them in different places.

What was measured:
Mtb H37Rv strain [1] = conditions: MABA, cited from earlier work
Mtb H37Rv strain [2] = test: microplate alamar blue assay (MABA), MIC; assay type: cell-based, Mycobacterium tuberculosis; conditions: lowest concentration leading to at least 90% inhibition of bacterial growth signal, average of three measurements
[3] = liver microsome stability assay; conditions: for Remaining (T = 60 min) / T1/2: human liver microsomes; for Remaining (T = 60 min): 60 min incubation; for T1/2: 0.1 µM compound, NADPH 1 mM, 37 °C
Pks13-TE = Pks13-TE (Mycobacterium tuberculosis, UniProt I6X8D2); test: biochemical; assay type: binding; conditions: Pks13-TE 30 µM, 3% DMSO, average of three measurements; for ΔTm at 150 µM: compound 150 µM (1:5); for ΔTm at 300 µM: compound 300 µM (1:10)
[4] = human, microsomes, 0.1 µM, pH 7.4; for Remaining (T = 60 min): 1 h
in vitro = conditions: human, microsomes, pH 7.4
[5] = Mycobacterium tuberculosis, H37RV, read-out: MIC

Chain of Pks13-TE (I6X8D2 1451-1733): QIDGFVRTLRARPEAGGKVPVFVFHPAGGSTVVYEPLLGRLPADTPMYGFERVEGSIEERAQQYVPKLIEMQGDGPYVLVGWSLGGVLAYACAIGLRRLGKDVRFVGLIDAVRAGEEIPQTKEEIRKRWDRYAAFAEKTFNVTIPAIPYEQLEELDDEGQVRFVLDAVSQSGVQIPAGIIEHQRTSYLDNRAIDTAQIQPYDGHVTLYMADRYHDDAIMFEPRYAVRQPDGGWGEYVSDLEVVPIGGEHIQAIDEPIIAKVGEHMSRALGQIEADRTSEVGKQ

For `CCOC(=O)c1c(-c2ccccc2)[nH]c2ccc(O)c(CN3CCCCC3)c12` [Compound 9], the MIC (Mtb H37Rv strain [1]; reference compound for comparison) is given as 32 µg/mL (≈ 84.6 µM).
For `CNC(=O)c1c(-c2ccc(OC)cc2)n(-c2ccccc2)c2ccc(O)c(CN3CCCCC3)c12` [Compound 22, 5-hydroxy-2-(4-methoxyphenyl)-N-methyl-1-phenyl-4-(piperidin-1-ylmethyl)-1H-indole-3-carboxamide], the MIC (Mtb H37Rv strain [2]; [5]) was 16 µg/mL (≈ 34.1 µM).
With `O=C(O)Cc1ccccc1Nc1c(Cl)cccc1Cl` [Diclofenac] the “Remaining (T = 60 min)” value [3] was 0.1% and the “CLint(liver)” value ([3]; human, scaled from CLint(mic) with 45 mg microsomal protein/g liver, 20 g liver/kg) was 223.1 mL/min/kg.
`CCOC(=O)c1c(C)n(-c2ccc(F)cc2)c2ccc(O)c(CN3CCCCC3)c12` [Compound 37, Ethyl 1-(4-fluorophenyl)-5-hydroxy-2-methyl-4-(piperidin-1-ylmethyl)-1H-indole-3-carboxylate] showed an MIC (Mtb H37Rv strain [2]; [5]) of 0.5 to 8 µg/mL (≈ 1.22 to 19.5 µM) and an MIC (Mtb H37Rv strain [2]) of 1 µg/mL (≈ 2.44 µM).
`COc1ccc(-c2c(C(C)=O)c3c(CN4CCCCC4)c(O)ccc3n2-c2ccccc2)cc1` [Compound 19, 1-(5-hydroxy-2-(4-methoxyphenyl)-1-phenyl-4-(piperidin-1-ylmethyl)-1H-indol-3-yl) ethan-1-one] gave an MIC (Mtb H37Rv strain [2]; [5]) of 4 µg/mL (≈ 8.8 µM).
For `CCOC(=O)c1c(-c2ccc(O)cc2)[nH]c2ccc(O)c(CN3CCCCC3)c12` [Compound 14, Ethyl 5-hydroxy-2-(4-hydroxyphenyl)-4-(piperidin-1-ylmethyl)-1H-indole-3-carboxylate], the ΔTm at 150 µM (Pks13-TE) was 5.5 ± 0.04 °C and the ΔTm at 300 µM (Pks13-TE) was 4.9 ± 0.02 °C.
In the case of `CC(=O)c1c(C)n(-c2ccc(C(C)(C)C)cc2)c2ccc(O)c(CN3CCCCC3)c12` [Compound 55, 1-(1-(4-(tert-butyl)phenyl)-5-hydroxy-2-methyl-4-(piperidin-1-ylmethyl)-1H-indol-3-yl)ethan-1-one], the MIC (Mtb H37Rv strain [2]; [5]) is reported as 0.125 µg/mL (≈ 0.299 µM).
Work on `CCNC(=O)c1c(-c2ccc(OC)cc2)n(-c2ccccc2)c2ccc(O)c(CN3CCCCC3)c12` [Compound 23, N-ethyl-5-hydroxy-2-(4-methoxyphenyl)-1-phenyl-4-(piperidin-1-ylmethyl)-1H-indole-3-carboxamide] yielded an MIC (Mtb H37Rv strain [2]; [5]) of 16 µg/mL (≈ 33.1 µM).
`CC(=O)c1c(-c2ccc(O)cc2)n(-c2ccccc2)c2ccc(O)c(CN3CCCCC3)c12` [Compound 20, 1-(5-hydroxy-2-(4-hydroxyphenyl)-1-phenyl-4-(piperidin-1-ylmethyl)-1H-indol-3-yl) ethan-1-one] gave an MIC (Mtb H37Rv strain [2]; [5]) of 16 µg/mL (≈ 36.3 µM).
“Ethyl 1-(4-(tert-butyl)phenyl)-5-hydroxy-2-methyl-4-(piperidin-1-ylmethyl)-1H-indole-3-carboxylate [Compound 57]” gave an MIC (Mtb H37Rv strain [2]) of 0.5 µg/mL.
For `O=c1oc2cc(O)ccc2c2oc3ccc(O)c(CN4CCCCC4)c3c12` [Compound 7, reference compound], the ΔTm at 150 µM (Pks13-TE) is listed as 11.4 ± 0.03 °C, the ΔTm at 300 µM (Pks13-TE) is listed as 10.5 ± 0.01 °C and the MIC (Mtb H37Rv strain [1]; reference compounds for comparison) is listed as 0.0039 µg/mL (≈ 0.0107 µM).
Compound `CC(=O)c1c(C)n(-c2ccc(-c3ccccc3)cc2)c2ccc(O)c(CN3CCCCC3)c12` [Compound 45, 1-(1-([1,1′-biphenyl]-4-yl)-5-hydroxy-2-methyl-4-(piperidin-1-ylmethyl)-1H-indol-3-yl)ethan-1-one] has a ΔTm at 150 µM (Pks13-TE) of 14 ± 0.04 °C, a ΔTm at 300 µM (Pks13-TE) of 13.2 ± 0.65 °C and an MIC (Mtb H37Rv strain [2]; [5]) of 0.0625 µg/mL (≈ 0.143 µM).
With `CC(=O)c1c(C)n(-c2ccc(N(C)C)cc2)c2ccc(O)c(CN3CCCCC3)c12` [Compound 50, 1-(1-(4-(dimethylamino)phenyl)-5-hydroxy-2-methyl-4-(piperidin-1-ylmethyl)-1H-indol-3-yl)ethan-1-one] the MIC (Mtb H37Rv strain [2]; [5]) was 0.5 µg/mL (≈ 1.23 µM).
In the case of `CC(=O)c1c(C)n(-c2ccc(C(C)(C)C)cc2)c2ccc(O)c(CN3CCCC3)c12` [Compound 56, 1-(1-(4-(tert-butyl)phenyl)-5-hydroxy-2-methyl-4-(pyrrolidin-1-ylmethyl)-1H-indol-3-yl)ethan-1-one], the MIC (Mtb H37Rv strain [2]; [5]) is reported as 0.25 µg/mL (≈ 0.618 µM).
For `CC(=O)c1c(C)n(-c2ccc(N(C)C)cc2)c2ccc(O)c(CN3CCCC3)c12` [Compound 52, 1-(1-(4-(dimethylamino)phenyl)-5-hydroxy-2-methyl-4-(pyrrolidin-1-ylmethyl)-1H-indol-3-yl)ethan-1-one], the ΔTm at 150 µM (Pks13-TE) was 11.4 ± 0.02 °C, the ΔTm at 300 µM (Pks13-TE) was 10.3 ± 0.04 °C and the MIC (Mtb H37Rv strain [2]; [5]) was 0.5 µg/mL (≈ 1.28 µM).
`CNC(=O)c1c(C)n(-c2ccc(OC)cc2)c2ccc(O)c(CN3CCCCC3)c12` [Compound 30, 5-hydroxy-1-(4-methoxyphenyl)-N,2-dimethyl-4-(piperidin-1-ylmethyl)-1H-indole-3-carboxamide] gave an MIC (Mtb H37Rv strain [2]; [5]) of 16 µg/mL (≈ 39.3 µM).
`CC(=O)c1c(C)n(-c2ccc(N(C)C)cc2)c2ccc(O)c(CN3CCC(C)CC3)c12` [Compound 53, 1-(1-(4-(dimethylamino)phenyl)-5-hydroxy-2-methyl-4-((4-methylpiperidin-1-yl)methyl)-1H-indol-3-yl)ethan-1-one] showed an MIC (Mtb H37Rv strain [2]; [5]) of 1 µg/mL (≈ 2.38 µM).
`CC(=O)c1c(C)n(-c2ccc(C(C)C)cc2)c2ccc(O)c(CN3CCCCC3)c12` [Compound 54, 1-(5-hydroxy-1-(4-isopropylphenyl)-2-methyl-4-(piperidin-1-ylmethyl)-1H-indol-3-yl)ethan-1-one] showed an MIC (Mtb H37Rv strain [2]; [5]) of 0.125 µg/mL (≈ 0.309 µM).
For `CCOC(=O)c1c(C)n(-c2ccccc2)c2ccc(O)c(CN3CCCCC3)c12` [Compound 28, Ethyl 5-hydroxy-2-methyl-1-phenyl-4-(piperidin-1-ylmethyl)-1H-indole-3-carboxylate], the ΔTm at 150 µM (Pks13-TE) was 8.6 ± 0.01 °C, the ΔTm at 300 µM (Pks13-TE) was 7.8 ± 0.04 °C and the MIC (Mtb H37Rv strain [2]; [5]) was 8 µg/mL (≈ 20.4 µM).
In the case of `CCOC(=O)c1c(C)n(-c2ccc(N(C)C)cc2)c2ccc(O)c(CN3CCCCC3)c12` [Compound 49, Ethyl 1-(4-(dimethylamino)phenyl)-5-hydroxy-2-methyl-4-(piperidin-1-ylmethyl)-1H-indole-3-carboxylate], the MIC (Mtb H37Rv strain [2]; [5]) is reported as 0.5 to 8 µg/mL (≈ 1.15 to 18.4 µM) and the MIC (Mtb H37Rv strain [2]) is reported as 1 µg/mL (≈ 2.3 µM).
`CC(=O)c1c(C)n(-c2ccc(Br)cc2)c2ccc(O)c(CN3CCCCC3)c12` [Compound 58, 1-(1-(4-bromophenyl)-5-hydroxy-2-methyl-4-(piperidin-1-ylmethyl)-1H-indol-3-yl)ethan-1-one] showed a ΔTm at 150 µM (Pks13-TE) of 9.5 ± 0.04 °C, a ΔTm at 300 µM (Pks13-TE) of 7.6 ± 0.01 °C and a T1/2 [3] of 58.0 min. The MIC (Mtb H37Rv strain [2]; [5]) was 0.125 µg/mL (≈ 0.283 µM), the “CLint(liver)” value [4] was 21.5 mL/min/kg and the “CLint(mic)” value [4] was 23.9 µL/min/mg. For the same compound, the “Remaining (T = 60 min)” value [4] was 47.3%.
Work on `CNC(=O)c1c(-c2ccc(O)cc2)n(-c2ccccc2)c2ccc(O)c(CN3CCCCC3)c12` [Compound 24, 5-hydroxy-2-(4-hydroxyphenyl)-N-methyl-1-phenyl-4-(piperidin-1-ylmethyl)-1H-indole-3-carboxamide] yielded an MIC (Mtb H37Rv strain [2]; [5]) of 4 µg/mL (≈ 8.78 µM).
For `CCOC(=O)c1c(-c2ccc(O)cc2)n(-c2ccccc2)c2ccc(O)c(CN3CCCCC3)c12` [Compound 18, Ethyl 5-hydroxy-2-(4-hydroxyphenyl)-1-phenyl-4-(piperidin-1-ylmethyl)-1H-indole-3-carboxylate], the MIC (Mtb H37Rv strain [2]; [5]) was 2 to 32 µg/mL (≈ 4.25 to 68 µM) and the MIC (Mtb H37Rv strain [2]) was 2 µg/mL (≈ 4.25 µM).
For `CCOC(=O)c1c(C)n(-c2ccc(OC)cc2)c2ccc(O)c(CN3CCCCC3)c12` [Compound 34, Ethyl 5-hydroxy-1-(4-methoxyphenyl)-2-methyl-4-(piperidin-1-ylmethyl)-1H-indole-3-carboxylate], the MIC (Mtb H37Rv strain [2]; [5]) was 0.5 to 8 µg/mL (≈ 1.18 to 18.9 µM) and the MIC (Mtb H37Rv strain [2]) was 1 µg/mL (≈ 2.37 µM).
In the case of `CNC(=O)c1c(C)n(-c2ccccc2)c2ccc(O)c(CN3CCCCC3)c12` [Compound 29, 5-hydroxy-N,2-dimethyl-1-phenyl-4-(piperidin-1-ylmethyl)-1H-indole-3-carboxamide], the MIC (Mtb H37Rv strain [2]; [5]) is reported as > 64 µg/mL and the MIC (Mtb H37Rv strain [2]) is reported as >64 µg/mL.
Compound `CCNC(=O)c1c(-c2ccc(O)cc2)n(-c2ccccc2)c2ccc(O)c(CN3CCCCC3)c12` [Compound 25, N-ethyl-5-hydroxy-2-(4-hydroxyphenyl)-1-phenyl-4-(piperidin-1-ylmethyl)-1H-indole-3-carboxamide] has an MIC (Mtb H37Rv strain [2]; [5]) of 8 µg/mL (≈ 17 µM).
`CC(=O)c1c(C)n(-c2ccc(N3CCCCC3)cc2)c2ccc(O)c(CN3CCCCC3)c12` [Compound 48, 1-(5-hydroxy-2-methyl-1-(4-(piperidin-1-yl)phenyl)-4-(piperidin-1-ylmethyl)-1H-indol-3-yl) ethan-1-one] showed a CLint scaled at 0.1 µM (in vitro) of 60.2 mL/min/kg, a microsomal CLint at 0.1 µM (in vitro) of 66.9 µL/min/mg and a ΔTm at 150 µM (Pks13-TE) of 14.6 ± 0.04 °C. For the same compound, the ΔTm at 300 µM (Pks13-TE) was 14 ± 0.01 °C, the half-life at 0.1 µM ([3]; human, liver microsomes, pH 7.4) was 20.7 min and the MIC (Mtb H37Rv strain [2]; [5]) was 0.125 µg/mL (≈ 0.281 µM). For the same compound, the “Remaining (T = 60 min)” value [4] was 11.3%.
For `CCOC(=O)c1c(-c2ccc(OC)cc2)[nH]c2ccc(O)c(CN3CCCCC3)c12` [Compound 13, Ethyl 5-hydroxy-2-(4-methoxyphenyl)-4-(piperidin-1-ylmethyl)-1H-indole-3-carboxylate], the MIC (Mtb H37Rv strain [2]; [5]) was 32 µg/mL (≈ 78.3 µM).
`CCOC(=O)c1c(-c2ccc(OC)cc2)n(-c2ccccc2)c2ccc(O)c(CN3CCCCC3)c12` [Compound 17, Ethyl 5-hydroxy-2-(4-methoxyphenyl)-1-phenyl-4-(piperidin-1-ylmethyl)-1H-indole-3-carboxylate] showed an MIC (Mtb H37Rv strain [2]; [5]) of 4 µg/mL (≈ 8.25 µM).
Work on `CCOC(=O)c1c(C)n(-c2ccc(C)cc2)c2ccc(O)c(CN3CCCCC3)c12` [Compound 31, Ethyl 5-hydroxy-2-methyl-4-(piperidin-1-ylmethyl)-1-(p-tolyl)-1H-indole-3-carboxylate] yielded an MIC (Mtb H37Rv strain [2]; [5]) of 0.5 to 8 µg/mL (≈ 1.23 to 19.7 µM) and an MIC (Mtb H37Rv strain [2]) of 1 µg/mL (≈ 2.46 µM).
For `CC(=O)c1c(C)n(-c2ccc(N(C)C)cc2)c2ccc(O)c(CN(C)C)c12` [Compound 51, 1-(4-((dimethylamino)methyl)-1-(4-(dimethylamino)phenyl)-5-hydroxy-2-methyl-1H-indol-3-yl)ethan-1-one], the MIC (Mtb H37Rv strain [2]; [5]) was 2 µg/mL (≈ 5.47 µM).
